Measured values reported in patent publication US20190048052A1, “ANTI-MICROBIAL PEPTIDES AND COATINGS” (Board of Regents of the University of Nebraska, priority 2016, published 2019).
In brackets after ≈: the same amount, converted by molar mass. Like-named read-outs stand apart in the source and are kept apart here. Residues, ends and D or L forms follow the SMILES beside them.

Key:
E. coli K12 = type: cell-based, Escherichia coli; details: K12
Protocol: (§1) The bacterial strains used here included Gram-positive bacteria Staphylococcus aureus USA300 LAC, Staphylococcus epidermidis 1457, Bacillus subtilis 168, and Gram-negative Escherichia coli K12. Clinical strains of S. aureus, including Mu50, UAMS-1 and Newman, were also evaluated.
(§2) The antimicrobial activity of peptides was evaluated using a standard broth microdilution protocol (Wang, G. (2008) J. Biol. Chem., 283:32637-32643). In brief, exponential phase bacteria at 10^6 CFU were incubated with serially diluted peptides overnight for ˜20 hours at 37° C. The plates were read on a ChroMate® 4300 Microplate Reader at 630 nm (GMI, Ramsey, Minn.). […] In addition, the effects of human serum (up to 10%), pH (6.8, 7.4 and 8.0) and 150 mM sodium chloride (NaCl) on MICs against S. aureus USA300 were also evaluated (Mishra et al. (2015) RSC Advances 5:59758-59769).

S. aureus USA300 [1] = type: cell-based, Staphylococcus aureus; details: USA300
Protocol: The minimal bactericidal concentration (MBC) was determined by plating 50 μl of the content in the clear wells of the above MIC assays. MBC was determined on the petri dishes without bacterial colony formation after overnight growth (Wang et al. (2012) Biochemistry 51:653-664).

C. glabrata ATCC 2001 = type: cell-based, Candida glabrata; details: ATCC 2001, 48 h
Protocol: (§3) Fungal strains used in this study include Candida albicans ATCC 10231, C. glabrata ATCC 2001 and C. tropicalis ATCC 13803. The fungi were grown in Remel Dex broth (Thermo Fisher Scientific, KS). Antifungal assays were conducted essentially as described for antibacterial assays above, except for a higher starting density at an OD600 0.02 and a longer incubation time of ˜48 hours prior to microplate reading (Mishra et al. (2015) RSC Advances 5:59758-59769).

[2] = system: Candida albicans ATCC 10231; type: cell-based; details: ATCC 10231, 48 h
Protocol: as §3

S. epidermidis 1457 = type: cell-based, Staphylococcus epidermidis
Protocol: as §1, §2

MTS cytotoxicity assay [3] = type: cell-based; details: human
Protocol: (§4) HeLa CCL-2 epithelial adenocarcinoma cells from American Type Culture Collection (ATCC) were maintained in DMEM high glucose media with 4 mM L-glutamine (NyClone) and 100 U/mL penicillin, 100 μg/mL streptomycin (pen/strep) (Life Technologies), and 10% (v/v) inactivated fetal bovine serum (FBS) (NyClone). Cells were grown in 5% CO2 at 37° C. and were detached from the culturing dish at 80% confluency using 0.025% trypsin-EDTA (NyClone) treatment. Peptide influence on the cell viability was estimated by using the MTS assay according to the manufacturer's protocol (MTS, CellTiter96® AQ One Solution Cell Proliferation Assay, Promega) with minor modifications and as described elsewhere (Mishra et al. (2015) RSC Advances 5:59758-59769). In short, cells were cultured in flat bottomed 96 well microtiter plates (Corning Life Science) at a seeding density of 20,000 cells/well. At confluence ˜100% achieved after 20-24 hours of cultivation, the cells were washed twice with 100 μL Dulbecco's Phosphate Buffered Saline (Life Technologies). Further, 90 μL of DMEM media with 10% FBS, pen/step was added before exposure to 10 μL of the peptide solution in the concentration range 12.5-100 μM. Plates were incubated at 37° C. After 1 hour, 10 μL MTS, CellTiter96® was added. Plates were further incubated for another 2 hours at 37° C. and finally, the absorbance was measured on ChroMate® reader (Awareness Technology) at 492 nm. Culture medium and 0.2% SDS were used as negative and positive controls, respectively.
Human skin HaCaT (immortalized keratinocyte from AddexBio, T0020001) and kidney HEK293 cells were also cultivated for cytotoxicity evaluation of the peptides in a similar manner.

MTS cytotoxicity assay [4] = type: cell-based; details: human, HeLa CCL-2 cells
Protocol: as §4

S. aureus UAMS-1 = type: cell-based, Staphylococcus aureus
In short: (§5)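 Broth microdilution: exponential-phase bacteria at 10^6 CFU incubated with serially diluted peptides ~20 hours at 37° C, read at 630 nm to give MICs. For S. aureus USA300, effects of up to 10% human serum, pH 6.8/7.4/8.0 and 150 mM NaCl also tested.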

S. aureus Newman = type: cell-based, Staphylococcus aureus
In short: as §5

S. aureus USA300 [5] = type: cell-based, Staphylococcus aureus; details: for Antimicrobial activity (MIC) 150 mM NaCl / Antimicrobial activity (MIC) USA300 / MIC S. aureus USA300: USA300; for Antimicrobial activity (MIC) pH 6.8: USA300, pH 6.8; for Antimicrobial activity (MIC) Normal medium (pH 7.4): USA300, pH 7.4; for Antimicrobial activity (MIC) pH 8: USA300, pH 8
In short: as §5

S. aureus Mu50 = type: cell-based, Staphylococcus aureus
In short: as §5

C. tropicalis ATCC 13803 = type: cell-based, Candida tropicalis; details: ATCC 13803, 48 h
Protocol: as §3

Hemolytic assay = type: cell-based; details: red blood cells, hemolysis
Protocol: Hemolytic analysis of selected peptides was performed using an established protocol (Mishra et al. (2015) RSC Advances 5:59758-59769). Briefly, human blood cells (UNMC Blood Bank) were washed three times with phosphate buffer saline (PBS) and diluted to a 2% solution. After peptide treatment, incubation at 37° C. for one hour, and centrifugation at 13,000 rpm, aliquots of the supernatant were transferred to a fresh 96-well microplate. To assess peptide cytotoxicity, the amount of hemoglobin released was measured at 545 nm. The percent lysis was calculated by assuming 100% release when human blood cells were treated with 1% TRITON™ X-100, and 0% release when incubated with PBS buffer. The hemolytic assays using chicken, bovine, and porcine blood cells (Lampire Biological Laboratories, Inc.) were performed in the same manner.

B. subtilis 168 = type: cell-based, Bacillus subtilis
Protocol: as §1, §2

[6] = chicken, read-out: LC50 Chicken RBCs
[7] = human, read-out: LC50 Human RBCs
[8] = pig, read-out: LC50 Porcine RBCs

CC[C@H](C)[C@H](NC(=O)[C@H](CCCNC(=N)N)NC(=O)[C@H](CCCNC(=N)N)NC(=O)[C@H](CC(C)C)NC(=O)[C@H](Cc1c[nH]c2ccccc12)NC(=O)[C@H](Cc1c[nH]c2ccccc12)NC(=O)[C@@H](N)Cc1c[nH]c2ccccc12)C(=O)N[C@@H](Cc1c[nH]c2ccccc12)C(N)=O [TetraF2W-RR, WWWLRRIW] (H-WWWLRRIW-NH2; N-terminus assumed)
MIC E. coli K12 (E. coli K12): 25 µM (≈ 32.5 µg/mL)
MBC S. aureus USA300 (S. aureus USA300 [1]): 3.1 µM (≈ 4.03 µg/mL)
MIC Candida glabrata (C. glabrata ATCC 2001): >25 µM
MIC Candida albicans [2]: 25 µM (≈ 32.5 µg/mL)
MIC S. epidermidis 1457 (S. epidermidis 1457): 6.2 to 12.5 µM
CC50 at 1 hour (MTS cytotoxicity assay [3]; HEK293 cells): 70 µM
CC50 at 1 hour (MTS cytotoxicity assay [3]; HaCaT cells): 70 µM
CC50 at 1 hour (MTS cytotoxicity assay [4]): 60 µM
Antimicrobial activity (MIC) UAMS-1 (S. aureus UAMS-1): 6.2 µM
Antimicrobial activity (MIC) Newman (S. aureus Newman): 3.1 µM
change in MIC on drop of pH from 8 to 6.8 (S. aureus USA300 [5]; S. aureus USA300): two-fold
fold more potent than temporin-SHf (anti-MRSA) (S. aureus USA300 [5]; S. aureus USA300): 8 fold
Antimicrobial activity (MIC) 150 mM NaCl (S. aureus USA300 [5]): 3.1 µM
Antimicrobial activity (MIC) USA300 (S. aureus USA300 [5]): 1.56 to 3.1 µM
MIC S. aureus USA300 (S. aureus USA300 [5]): 1.6 to 3.1 µM
Antimicrobial activity (MIC) pH 6.8 (S. aureus USA300 [5]): 6.2 μM
Antimicrobial activity (MIC) Normal medium (pH 7.4) (S. aureus USA300 [5]): 1.56-3.1 μM
Antimicrobial activity (MIC) pH 8 (S. aureus USA300 [5]): 3.1 μM
Antimicrobial activity (MIC) Mu50 (S. aureus Mu50): 3.1 µM
MIC Candida tropicalis (C. tropicalis ATCC 13803): 3.1 µM (≈ 4.03 µg/mL)
HC50 at 1 hour (Hemolytic assay; [6]): 55 µM
HC50 at 1 hour (Hemolytic assay; [7]): 20 µM
HC50 at 1 hour (Hemolytic assay; [8]): 40 µM
MIC B. subtilis 168 (B. subtilis 168): 3.1 to 6.2 µM

CC[C@H](C)[C@H](NC(=O)[C@H](CCCCN)NC(=O)[C@H](CCCNC(=N)N)NC(=O)[C@H](CC(C)C)NC(=O)[C@H](Cc1c[nH]c2ccccc12)NC(=O)[C@H](Cc1c[nH]c2ccccc12)NC(=O)[C@@H](N)Cc1c[nH]c2ccccc12)C(=O)N[C@@H](Cc1c[nH]c2ccccc12)C(N)=O [TetraF2W-RK, WWWLRKIW] (H-WWWLRKIW-NH2; N-terminus assumed)
MIC E. coli K12 (E. coli K12): 25 µM (≈ 31.8 µg/mL)
MBC S. aureus USA300 (S. aureus USA300 [1]): 12.5 µM (≈ 15.9 µg/mL)
MIC Candida glabrata (C. glabrata ATCC 2001): 12.5 µM (≈ 15.9 µg/mL)
MIC Candida albicans [2]: 12.5 µM (≈ 15.9 µg/mL)
MIC S. epidermidis 1457 (S. epidermidis 1457): 6.2 µM (≈ 7.89 µg/mL)
CC50 at 1 hour (MTS cytotoxicity assay [3]; HEK293 cells): 60 µM
CC50 at 1 hour (MTS cytotoxicity assay [3]; HaCaT cells): 60 µM
CC50 at 1 hour (MTS cytotoxicity assay [4]): > 100 µM
Antimicrobial activity (MIC) UAMS-1 (S. aureus UAMS-1): 6.2 µM
Antimicrobial activity (MIC) Newman (S. aureus Newman): 3.1 µM
change in MIC on drop of pH from 8 to 6.8 (S. aureus USA300 [5]; S. aureus USA300): two-fold
Antimicrobial activity (MIC) 150 mM NaCl (S. aureus USA300 [5]): 3.1 µM
Antimicrobial activity (MIC) USA300 (S. aureus USA300 [5]): 3.1 µM
MIC S. aureus USA300 (S. aureus USA300 [5]): 3.1 µM (≈ 3.94 µg/mL)
Antimicrobial activity (MIC) pH 6.8 (S. aureus USA300 [5]): 6.2 μM
Antimicrobial activity (MIC) Normal medium (pH 7.4) (S. aureus USA300 [5]): 3.1 μM
Antimicrobial activity (MIC) pH 8 (S. aureus USA300 [5]): 3.1 μM
Antimicrobial activity (MIC) Mu50 (S. aureus Mu50): 3.1 µM
MIC Candida tropicalis (C. tropicalis ATCC 13803): 3.1 to 6.2 µM
HC50 at 1 hour (Hemolytic assay; [6]): 35 µM
HC50 at 1 hour (Hemolytic assay; [7]): 30 µM
HC50 at 1 hour (Hemolytic assay; [8]): 40 µM
MIC B. subtilis 168 (B. subtilis 168): 6.2 µM (≈ 7.89 µg/mL)
